Entries after “also recorded” stand apart in the source; their conditions may differ.
How the values were obtained:
[1] = system: normal human mammary epithelial cells (HMEC); test: Morphology of mammary epithelial cells; type: cell-based; conditions: 50 μM EGCG
Experimental: Cell lines and cell culture. The normal human keratinocytes (NHEK CC-2507) were purchased from Cambrex (East Rutherford, N.J.) and maintained in KGM-2 medium (Cambrex). The OSC2 cell line was previously described in Example 1. The OSC2 subclones were established by retroviral transfection of the parental OSC2 cell line. These clones were maintained in 45% Dulbecco's Modified Eagle's Medium (DMEM), 45% Ham's F12 medium and 10% fetal calf serum, 100 I.U/ml penicillin, 100 μg/ml streptomycin and 5 μg/ml hydrocortisone. The normal human mammary epithelial cells (HMEC) were maintained in MEGM medium (Cambrex). All cell cultures were maintained in a 37° C. incubator with 5% CO2. Light photographs were taken with a SPOT RT digital camera system (Diagnostic Instruments, Sterling Heights, Mich.) linked to a Nikon Phase Contrast-2 microscope at an original magnification of 400×. Fluorescent photomicrographs were taken with a SPOT color digital camera system using the ZEISS Axiovert 10. Fluorescence was generated by a ZEISS AttoArc 2 source with an original magnification of 400×. Experiments were repeated three times.

[2] = system: NS-SV-AC cells; test: Intracellular ROS levels (DFDA assay), NS-SV-AC cells; type: cell-based, human; conditions: EGCG 15-200 μM, 60 minutes
Experimental: (§1) Measurement of intracellular ROS levels. The ROS assay measures the accumulation of intracellular ROS levels. The non-fluorescent dye DFDA passively diffuses into cells, where the acetates are cleaved by intracellular esterases. […] Thus, values of the fluorescence in the cell cultures are constantly rising in this assay. […] The intracellular ROS levels were measured by using a fluorescence plate reader (BIO-TEK FL600, Bio-Tek Instruments, Inc., Winooski, Vt.), at an excitation wavelength of 485 nm and an emission wavelength of 530 nm.

[3] = system: caspase 14 and p21; test: Caspase 14 and p21 expression in OSC2 cells; type: cell-based, human; conditions: EGCG
Experimental: To identify additional factors those suppress EGCG -induced apoptosis and facilitate cell differentiation in NHEK, exponentially growing NHEK (Cambrex, Baltimore, Md.) were exposed to 100 μM EGCG for 0, 2, 6 and 24 hours, prior to total RNA isolation using the Qiagen RNeasy mini kit (Valencia, Calif.), which was followed by RT-PCR labeling and hybridization with the Human Apoptosis Macroarray membrane (Sigma-Genosys, The Woodlands, Tex.). Total cell lysates also were collected following a variety of EGCG treatments. The protein levels for caspase 14 and p21 were determined by immuno-blotting using antibodies specific for caspase 14 and p21 (Santa Cruz Biotechnology, Santa Cruz, Calif.).
Normal human epidermal keratinocytes (NHEK; Cambrex), and oral squamous cell carcinoma (OSC2) cells, originally from gingival tissue, were compared. Exponentially growing cells were exposed to 50 or 100 μM EGCG for 0 hours, 2 hours, 6 hours or 24 hours. Cells were harvested for total RNA, which was examined by apoptosis macroarrays (Sigma Genosys), followed by phosphorimagery and data analysis (GeneSpring). Protein production of expressed genes was confirmed by Western blotting of whole cell lysates.

[4] = system: OSC-2 cells; test: MTT assay (mitochondrial SDH activity), OSC2 (OSC-2) cells; conditions: increasing EGCG and 0.2 mg/ml GTPPs, 24 hour
Experimental: This method detects the activity of mitochondrial succinate dehydrogenase (SDH). In a 96-well plate, 1.5×10^4 cells were seeded in each well. After variety of treatments, 100 μl of 2% MTT was added to each well and the plate was incubated at 37° C. for 30 minutes. 100 μl of 0.2 M Tris (pH 7.7) with 4% formalin was added to each well. After incubation at room temperature for 5 minutes, liquid was removed and the wells were allowed to dry. Each well was rinsed with 200 μl water followed by addition of 100 μl DMSO (6.35% 0.1 N NaOH in DMSO) to each well. The coloration was measured by a Thermo MAX microplate reader (Molecular Devices Corp. Sunnyvale, Calif. using wavelengths of 562 nm. Experiments were repeated three times with triplicate samples for each experiment.
This method directly detects the activity of mitochondrial succinate dehydrogenase (SDH). Changes in SDH activity is a measurement of cell viability when stress is introduced in cell culture through chemical or physical means. Cells (1.5×10^4 cells/well) were seeded in a 96-well microplate and treated with the indicated doses of EGCG for 24 hours. After the treatment, the cells in each well were washed with 200 μl of phosphate-buffered saline (PBS), incubated with 100 μl of 2% MTT in a solution of 0.05 M Tris, 0.5 mM MgCl2, 2.5 mM CoCl2, and 0.25 M disodiumn succinate as substrate (Sigma) at 37° C. for 30 minutes. Cells were fixed in situ by the addition of 100 μl of 4% formalin in 0.2 M Tris (pH 7.7), and after a 5 minute incubation at room temperature liquid was removed and the wells were allowed to dry. Each well was rinsed with 200 μl water and cells were solubilized by the addition of 100 μl of 6.35% 0.1 N NaOH in DMSO. The colored formazan product was measured by a Thermo MAX micro plate reader (Molecular Devices Corp., Sunnyvale, Calif.) at a wavelength of 562 nm. […]
This method directly detects the activity of mitochondrial succinate dehydrogenase (SDH). […] Solubilized colored formazan product was measured using a Thermo MAX microplate reader (Molecular Devices Corp., Sunnyvale, Calif.) at a wavelength of 562 nm.

[5] = system: aged normal human primary epidermal keratinocytes; test: MTT assay (SDH activity), aged keratinocytes; type: cell-based
Experimental: Culturing normal human epithelial cells. The pooled normal human primary epidermal keratinocytes were purchased from Cambrex (Baltimore, Md.) and sub-cultured in the specific growth media provided by the manufacturer (KGM-2). […] Exponentially growing keratinocytes were treated and harvested in their early passages (2-3 passages).

[6] = system: NHEK; test: Intracellular ROS levels (DFDA assay), NHEK; type: cell-based, human; conditions: EGCG 15-200 μM, up to 120 minutes
Experimental: as §1

[7] = system: OSC2 cells; test: Cell invasion/migration assay (Transwell), OSC2 cells; type: cell-based, human; conditions: 50 μM EGCG
Experimental: Cell invasion/migration assay. The invasion/migration assays were conducted using a Transwell apparatus (Costar) with 6.5 mm diameter wells and membranes of 8 μm pore size. The invasiveness at each time point was tested in DMEM/F12 medium immediately following the cell growth assay, by seeding 10^5 cells in each transwell. Cells migrated across the transwell membrane were counted as per microscopic field.

[8] = daily topical 30 mg/ml EGCG for 30 days; cited from earlier work
[9] = system: Apaf-1; test: Western blot of Apaf-1 in mammary epithelial cells; type: cell-based, human; conditions: 15 μM EGCG, 24 h
Experimental: (§2) Western blot analysis. The keratinocytes and the mammary epithelial cells were placed in KGM-2 and MEGM, respectively, overnight prior to treatment. Cells were lysed, after 24-hour treatment, in RIPA buffer (1% NP-40, 1% sodium deoxycholate, 0.1% SDS, 0.15 M NaCl, 0.01 M sodium phosphate, pH 7.2, and 1% Trasylol) containing proteinase inhibitors (1 mM PMSF, 1 μg/ml each of aprotinin, leupeptin, and pepstatin). The concentration of protein in each sample was determined using the BioRad DC Protein Assay and spectrophotometry. 50 μg of protein from each sample and a BioRad molecular weight standard marker were run on a 10% SDS-PAGE, followed by transfer to nitrocellulose membranes. Nonspecific binding to the membranes was blocked with 10% nonfat milk. Primary polyclonal (rabbit) antibodies and a horseradish peroxidase-conjugated goat anti-rabbit secondary antibody were used in conjunction with the ECL Chemiluminescence Kit (Amersham Pharmacia Biotech, New Jersey) and membranes were exposed to radiographic films for detection. Western blots were digitized for comparison of the intensity for each band using the ImageTool image analysis software program (University of Texas Health Science Center, San Antonio, Tex.). The integrated density of each band was measured using identical 1480 pixel areas of each Apfa-1 or Actin band at a scale of densities from 0 to 255. […]

[10] = system: p57; test: Western blot of p57 in mammary epithelial cells; type: cell-based, human; conditions: EGCG 15 to 200 μM, 24 h
Experimental: as §2

[11] = system: MCF7 cells; test: MTT assay (mitochondrial SDH activity), MCF7 cells; type: cell-based, human; conditions: 50 μM EGCG
Experimental: MTT (3-(4,5-dimethylthiazol-2-yl)-2,5-diphenyl tetrazolium bromide) assay. This method detects the activity of mitochondrial succinate dehydrogenase (SDH). In a 96-well plate, 1.5×10^4 cells were seeded in each well. After variety of treatments, 100 μl of 2% MTT was added to each well and the plate was incubated at 37° C. for 30 minutes. 100 μl of 0.2 M Tris (pH 7.7) with 4% formalin was added to each well. After incubation at room temperature for 5 minutes, liquid was removed and the wells were allowed to dry. Each well was rinsed with 200 μl water followed by addition of 100 μl DMSO (6.35% 0.1 N NaOH in DMSO) to each well. The coloration was measured by a Thermo MAX microplate reader (Molecular Devices Corp. Sunnyvale, Calif. using wavelengths of 562 nm. Experiments were repeated three times with triplicate samples for each experiment.

O=C(O[C@@H]1Cc2c(O)cc(O)cc2O[C@@H]1c1cc(O)c(O)c(O)c1)c1cc(O)c(O)c(O)c1 [EGCG, (−)-epigallocatechin-3-gallate]
morphology ([1]; 24 hours): little change in morphology | cell death ([1]; 48 hours): Significant cell death was observed | intracellular ROS levels [2]: inhibit ROS production at background levels; also recorded: reduced the ROS to background levels | caspase 14 and p21 levels ([3]; identical conditions to NHEK): failed to show increased caspase 14 or decreased p21 | p21 mRNA elevated ([3]; within 2 hours): 3 fold | SDH activities [4]: decreased | SDH activity and BrdU incorporation ([5]; EGCG concentrations higher than 100 μM): consistently induced both SDH activity and BrdU incorporation | activation of succinate dehydrogenase (SDH), MTT assay ([5]; keratinocytes 25 days in culture, 24 h treatment): up to 37 fold | intracellular ROS levels [6]: significantly reduced immediately after the addition of EGCG; also recorded: reduce ROS to background levels | cells invading the membrane, of control ([7]; 24 hours): about 30% | cells invading the membrane, of control ([7]; 96 hours): 20% | dermal toxicity [8]: failed to induce dermal toxicity | Apaf-1 protein level increase above control (densitometry) [9]: 47% | p57 levels [10]: no significant changes | mitochondrial SDH activities [11]: significantly decreased

Reference: US20040191842A1, “Chemopreventive and therapeutic aspects of polyphenolic compositions and assays” (Medical College of Georgia Research Institute, Inc., priority 2002, published 2004)
